Values of other authors as cited in patent US20090196863A1, “METHOD OF ANTIOXIDATION AND ANTIOXIDANT-FUNCTIONING WATER” (MIZ CO., LTD., priority 2001, published 2009).

Conditions: normal temperature (20° C.) and atmospheric pressure

**Q.** Which saturated solvent concentration does the source give for `[HH]` [molecular hydrogen] here?
**A.** approximately 1.6 mg/L
